One data set deals with SY5Y cells. As to the kind of experiment: SY5Y cell survival with S-oligos and antineoplastic agent (CellTiter 96 AQueous assay). The class given is cell-based, human. As to conditions: 50 ng/ml agent, S-oligos 25-100 μM, 1 μM RA. The method, then: SY5Y cells, a neuroblastoma cell line (Example 3) were split into 96 well plates and grown in RPMI 1640 with glutamine, 10% FCS and 1 μM RA. At approximately 60% confluence, the phosphorothioate oligonucleotides (S-oligos, antisense, sense and scrambled; see Example 10) at various concentrations (25, 50, 75 and 100 μM) were added. Subsequently, 50 ng/ml of vinblastine (Sigma, St. Louis Mo., V-1377) was added to half of the wells (based on preliminary dose ranging experiments). Cell survival was measured using Promega's CellTiter 96 AQueous assay, which measures viable cells in the well. Paclitaxel (Sigma, St. Louis Mo., T-1912), another member of the […], was also tested (at 50 ng/ml) using this same assay.

The test system of a further data set is thymocytes. As to the kind of experiment: Apoptosis of thymocytes from Notch-1 antisense transgenic mice after dexamethasone. The class given is cell-based, mouse. As to conditions: thymocytes of Notch-1 antisense transgenic mice, pharmacologic dose. From the text: A pMAMneo plasmid was used which contained the same insert that was used in the pcDNA 3.1 plasmid that was introduced into the MEL cells. This construct expresses the antisense under a MMTV LTR promoter, which has good basal activity and is stimulated by several steroid hormones, such as estradiol, glucocorticoids and androgens. The plasmid was linearized, purified, and microinjected into mouse embryos which were then implanted into surrogate mothers. Pups were screened for the presence of the transgene by PCR on tail snippets. This was done on two separate instances, which generated one positive founder male and one positive founder female containing Notch-1 antisense in their genomes. The founder animals were separately bred into a C57bl6 background for several generations until homozygous positive mice were obtained which bred true (generated all positive litters).
Pharmacological stimuli were used to induce apoptosis more readily in thymocyte cells from these mice.
Thymocytes undergo differentiation in the thymus, and normally express Notch-1. Spontaneous apoptosis levels in thymocytes were not increased, but apoptosis and cell death levels were increased about 50% by a pharmacologic dose of dexamethasone, a steroid used for the treatment of T-cell leukemias which induces rapid terminal differentiation and death in thymocytes. […]

Data set [1] relates to HL-60 human promyelocytic leukemia cells. More on the design: key: +: Compound induces terminal differentiation of the transformed cells. As to conditions: terminal differentiation; cited from earlier work.
In the next data set the test system is Transformed cells. As to conditions: Table 2, hybrid polar compounds; cited from earlier work.
For data set [2], the system named is HT-29 human colon cancer cells. More on the design: key: +: Compound induces terminal differentiation of the transformed cells. As to conditions: terminal differentiation; cited from earlier work.
The subject of data set [3] is MEL murine erythroleukemia cells. Details: key: +: Compound induces terminal differentiation of the transformed cells. As to conditions: terminal differentiation; cited from earlier work.
Another data set concerns 3T3-L1 cells. As to conditions: Garcés et al. 1997; cited from earlier work.
In data set [4] the test system is MEL cells. As to conditions: cited from earlier work; for HG cells, % (% of cells hemoglobinized): Table 3, at optimal concentration; for Opt. [ ], μM (Optimal concentration): Table 3.
Another data set has as its system actin. The experiment in a line: Actin levels in S-oligo treated MEL cells. It counts as cell-based, mouse. As to conditions: sense, antisense and scrambled compared. The method, then:
(§1) The late apoptotic fraction (sub-G1 peak) in cells treated with Lin-12 sense, antisense and scrambled S-oligos in the presence of HMBA was determined by flow cytometry (FIG. 11B). […] The Lin-12 antisense S-oligo, but not the sense or scrambled control, decreased expression of Notch-1 protein by 50-75% at 48 hours in three experiments. […] Actin expression was also unaffected by a transfected 1100 bp construct in a plasmid, as discussed below in Example 11.

Another data set has as its system Notch-1 protein. The experiment in a line: Notch-1 protein expression in S-oligo treated MEL cells. The class given is cell-based, mouse. As to conditions: at 48 hours, three experiments. The method, then: as §1
Cell pellets were solubilized in hot 2×SDS sample buffer containing 10% β-ME and analyzed by 4% SDS/PAGE. Proteins were electroblotted to Immobilon P (Millipore) in 10 mM CAPS with 10% methanol at 0.75 A for 5 hours. Notch-1 proteins were detected using a chemiluminescence Western blotting kit (Boehringer Mannheim) according to manufacturer's instructions. Relative band intensities were determined by the Kodak 1-D analysis software.

The test system of data set [5] is MEL cells. As to the kind of experiment: Late apoptotic fraction (sub-G1 peak) and viability of S-oligo treated MEL cells, flow cytometry. It counts as cell-based, mouse. On the procedure: as §1
Parental MEL or transfected clones were synchronized for cell cycle analysis experiments by density arrest (Ryan et al., Mol. Cell Biol. 1993, 13:711-719). At this point, cells were plated at 1×10^5 cells/ml in medium containing 5 mM HMBA. For the transfected clones, 700 μg/ml G418 was added to the medium. At 16 hours, cells were harvested, fixed in 1% paraformaldehyde for 15 minutes and then 70% ethanol overnight. Cells were resuspended, at constant cell density, in PI solution (50 μg/ml PI (propidum iodide), 0.1% Triton-X-100, 200 μg/ml RNAase A) for 1 hour at room temperature with mixing. […] The DNA content of cells was determined using a Becton Dickinson FACScan flow cytometer. Cells appearing as a sub-G1 peak were scored as apoptotic. In cell cycle analyses, apoptotic and dead cells were gated out and only the viable population was analyzed.

Data set [6] concerns MEL cells. The experiment in a line: HMBA-induced MEL cell differentiation, benzidine staining for hemoglobin. It counts as cell-based, mouse. As to conditions: 5 mM HMBA, at 120 hours. The method, then:
Murine erythroleukemia Friend cells (MEL), were maintained in RPMI supplemented with 10% (v/v) heat inactivated fetal bovine serum (HyClone) and 10^−5 M β-mercaptoethanol (β-ME). To induce differentiation, logarithmically growing cells were plated at 1×10^5 cells/ml in medium containing 5 mM HMBA for 120 hours. Cells were passaged to initial density at 72 hours. Cells were assayed for the presence of hemoglobin (Orkin et al., Proc. Natl. Acad. Sci. USA 1975, 72:98-102) by the addition of 1/10 volume of freshly prepared benzidine reagent (0.4% benzidine base, 2% hydrogen peroxide in 12% acetic acid). Benzidine positive cells were counted in modified Neubauer hemocytometers. Each sample was counted by two independent operators, blinded to the cell treatment, and readings were averaged.
The accumulation of differentiated cells, as determined by benzidine staining, was analyzed during the 120 hours of culture with HMBA (FIG. 8C). There was a steady increase in differentiated cells from 48 hours onwards, that generally reached 35-45%, at 120 hours. […] Cultures were not continued beyond 120 hours, because at this time Notch-1 was reproducibly undetectable.

The subject of another data set is Notch-1. As to the kind of experiment: Notch-1 mRNA and protein expression in MEL cells with HMBA (RT-PCR, western blot). It counts as cell-based, mouse. As to conditions: 5 mM HMBA, 4 to 120 hours. On the procedure:
Total RNA was extracted from cells using Trizol reagent (Life Technologies). RT-PCR was performed using the Thermostable Reverse Transcriptase RNA PCR kit (Perkin Elmer) according to manufacturer's instructions. Reactions were amplified in a Perkin Elmer 2400 DNA thermal cycler for 40 cycles of denaturation at 94° C. for 1 minute, annealing and extension at 65° C. for 2 minutes. Amplification of mouse primers specific for Notch-1, SEQ ID NO 1, and SEQ ID NO 2, generated a product of 431 bp. Primers specific for GAPDH: sense 5′ TCACCACCATGGAGAAGG 3′ (SEQ ID NO 3) and antisense 5′ […] 3′ (SEQ ID NO 4) generated a 200 bp product. Negative and positive PCR controls were included in every experiment.
To determine whether Notch-1 expression is regulated during HMBA-induced MEL cell differentiation, Notch-1 mRNA levels were analyzed in MEL cells set up at equal density and maintained in culture for 4, 8, 24 or 120 hours in the absence or presence of HMBA.
Notch-1 steady state protein levels were determined by western blot using the polyclonal antibody to Notch-1 (see Example 2). […] Notch-1 steady state protein levels reflected the Notch-1 mRNA pattern of expression. In the presence of HMBA (H), Notch-1 protein was reproducibly evident in the early stages of induction, but gradually disappeared becoming essentially undetectable at 120 hours. […] In uninduced MEL cells (C). […]

The conditions of data set [7]: patients; cited from earlier work.

In the case of `CC(=O)O[C@H]1C(=O)[C@@]2(C)[C@H]([C@H](OC(=O)c3ccccc3)[C@]3(O)C[C@H](OC(=O)[C@H](O)[C@@H](NC(=O)c4ccccc4)c4ccccc4)C(C)=C1C3(C)C)[C@]1(OC(C)=O)CO[C@@H]1C[C@@H]2O` [Paclitaxel], the “cell survival, antineoplastic agent combined with Notch-1 antisense S-oligos” value with SY5Y cells is on record as “cell survival was decreased to a greater extent”.

As for `C[C@@H]1C[C@H]2[C@@H]3CCC4=CC(=O)C=C[C@]4(C)[C@@]3(F)[C@@H](O)C[C@]2(C)[C@@]1(O)C(=O)CO` [dexamethasone], the “increase of apoptosis and cell death levels” value with thymocytes is on record as “about 50%”.

As for `O=C(/C=C/c1ccc(C(=O)NO)cc1)NO`, the “Transformed cells HL-60” value in data set [1] is listed as “+”. Also, in the data set with Transformed cells, the “Opt. [ ], μM (Optimal concentration)” value was 10 to 60 µM. Further, the “Transformed cells HT-29” value in [2] is given as “+”. Also, the “Transformed cells MEL” value in data set [3] is given as “+”.

On to “rh11-12: human recombinant Notch-1 EGF-repeats 11 and 12, 6-Histidine tagged, expressed in E. coli”, for which the “effect on differentiation of 3T3-L1 cells” value with 3T3-L1 cells is recorded as “blocked their differentiation”.

For the compound `CC(=O)NCCCCCCCCNCC=O`, the “Transformed cells HL-60” value in data set [1] was “+”. The “Opt. [ ], μM (Optimal concentration)” value in the data set on Transformed cells is reported as 5,000 μM. Further, in [2], the “Transformed cells HT-29” value was “+”. Also, the “Transformed cells MEL” value in data set [3] is “+”.

For `O=C(CCCCCCC(=O)NO)NO` [SBHA], in the data set with MEL cells [4], the “HG cells, % (% of cells hemoglobinized)” value is recorded as 94% and the “Opt. [ ], μM (Optimal concentration)” value was 30 µM.

In the case of “AGACTGCGTGCAGTTCTTCCAGG (all phosphorothioate, sugars by position and methylation of C not given here) [Lin-12 antisense S-oligo, phosphorothioate antisense oligo for the Lin/Notch region of Notch-1]”, the actin levels entry in the data set on actin is listed as “No difference in actin levels”. Also, in the data set with Notch-1 protein, the “decrease of Notch-1 protein expression” value is 50-75%. In addition, the “late apoptotic fraction (sub-G1 peak)” value in the data set with MEL cells [5] (25 μM S-oligo in the presence of HMBA, 120 hours) is given as “significantly larger effect than either sense (SEN) or scrambled (SCR) controls”. Besides, the “viability (cells within G1, G2/S or M regions)” value in the data set with MEL cells [5] (S-oligo in the presence of HMBA) was “parallel decrease in viability”.

As to `O=C(CCCCCCC(=O)Nc1ccccc1)NO` [SAHA, Suberoylanilide hydroxamic acid], in the data set with MEL cells [4], the “HG cells, % (% of cells hemoglobinized)” value is on record as 68% and the “Opt. [ ], μM (Optimal concentration)” value is 2.5 µM.

As to `CNC(=O)CCCCCCCCC(=O)NC`, the “Transformed cells HL-60” value in data set [1] is recorded as “+”. In the data set on Transformed cells, the “Opt. [ ], μM (Optimal concentration)” value was 5,000 μM. Besides, the “Transformed cells HT-29” value in data set [2] is “+”. Besides, the “Transformed cells MEL” value in [3] is on record as “+”.

As to `CC(=O)NCCCCCCNC(C)=O` [HMBA, hexamethylene bisacetamide], in the data set with MEL cells [4], the “HG cells, % (% of cells hemoglobinized)” value is 95% and the “Opt. [ ], μM (Optimal concentration)” value is 5,000 μM. In the data set with MEL cells [6], the “differentiated (benzidine-positive) cells” value is given as 35-45%. In addition, the “effect on Notch-1 expression pattern” value in the data set on Notch-1 is listed as “causing an early increase in Notch-1 followed by a progressive decline”. The “adverse effect of therapy” value in data set [7] was “can result in thrombocytopenia”.

In the case of `O=C(/C=C/c1cccc(C(=O)NO)c1)NO` [CBHA, m-carboxycinnamic acid bishydroxamide], in the data set with MEL cells [4], the “HG cells, % (% of cells hemoglobinized)” value is on record as 73% and the “Opt. [ ], μM (Optimal concentration)” value was 4.0 µM.

As for `CC(/C=C/C(=O)NO)=C\[C@@H](C)C(=O)c1ccc(N(C)C)cc1` [TSA], in the data set with MEL cells [4], the “HG cells, % (% of cells hemoglobinized)” value is on record as 80% and the “Opt. [ ], μM (Optimal concentration)” value was 0.075 µM.

`CC[C@]1(O)C[C@@H]2CN(CCc3c([nH]c4ccccc34)[C@@](C(=O)OC)(c3cc4c(cc3OC)N(C)[C@H]3[C@@](O)(C(=O)OC)[C@H](OC(C)=O)[C@]5(CC)C=CCN6CC[C@]43[C@@H]65)C2)C1` [vinblastine]: in the data set with SY5Y cells, the “cell survival, antineoplastic agent combined with Notch-1 antisense S-oligos” value was “cell survival was decreased to a greater extent”.

For the compound `O=C(CCCCCNC(=O)Nc1cccc(Cl)c1)NO` [3-Cl-UCHA], in the data set on MEL cells [4], the “HG cells, % (% of cells hemoglobinized)” value is 32% and the “Opt. [ ], μM (Optimal concentration)” value was 4.0 µM.

As for `O=C(CCCCCCCCC(=O)NO)NO`, the “Transformed cells HL-60” value in [1] was “+”. In addition, in the data set with Transformed cells, the “Opt. [ ], μM (Optimal concentration)” value was 10 to 60 µM. For the same compound, the “Transformed cells HT-29” value in data set [2] is recorded as “+”. Further, the “Transformed cells MEL” value in data set [3] is given as “+”.

The record behind these values is patent publication US20050187179A1, “Apoptosis inducing agents and methods” (The Government of the United States of America as …, priority 1998, published 2005).
